Data taken from publication PMC10211317, “Identification of ARUK2002821 as an isoform-selective PI5P4Kα inhibitor” (RSC Medicinal Chemistry, 2023).

Tests used:
Test in all cases: Premier Screen kinase panel (MRC PPU)
Type in all cases: biochemical
PKA = PKA (Homo sapiens, UniProt P17612); settings: PKA (Entrez PRKAC), read-out: Residual activity (%)
Description: (§1) room temperature with shaking for 30 minutes. The kinase concentration in the eluates was measured by qPCR.
(§2) using ADP-GloTM assay at the MRC PPU International Centre for Kinase Profiling, University of Dundee.
(§3) Conducted by MRC PPU International Centre
(§4) Conducted by MRC PPU International Centre for […]

MARK1 = MARK1 (Homo sapiens, UniProt Q9P0L2); settings: MARK1 (Entrez MARK1), read-out: Residual activity (%)
Description: as §1, §2, §3, §4

YES1 = YES1 (Homo sapiens, UniProt P07947); settings: YES1 (Entrez YES1), read-out: Residual activity (%)
Description: as §1, §2, §3, §4

PKBb = PKBb (Homo sapiens, UniProt P31751); settings: PKBb (Entrez AKT2), read-out: Residual activity (%)
Description: as §1, §2, §3, §4

IKKb = IKKb (Homo sapiens, UniProt O14920); settings: IKKb (Entrez IKBKB), read-out: Residual activity (%)
Description: as §1, §2, §3, §4

ERK5 = ERK5 (Homo sapiens, UniProt Q13164); settings: ERK5 (Entrez MAPK7), read-out: Residual activity (%)
Description: as §1, §2, §3, §4

MPSK1 = MPSK1 (Homo sapiens, UniProt O75716); settings: MPSK1 (Entrez STK16), read-out: Residual activity (%)
Description: as §1, §2, §3, §4

TTBK1 = TTBK1 (Homo sapiens, UniProt Q5TCY1); settings: TTBK1 (Entrez TTBK1), read-out: Residual activity (%)
Description: as §1, §2, §3, §4

SIK2 = SIK2 (Homo sapiens, UniProt Q9H0K1); settings: SIK2 (Entrez SIK2), read-out: Residual activity (%)
Description: as §1, §2, §3, §4

IRR = IRR (Homo sapiens, UniProt P14616); settings: IRR (Entrez INSRR), read-out: Residual activity (%)
Description: as §1, §2, §3, §4

JNK1 = JNK1 (Homo sapiens, UniProt P45983); settings: JNK1 (Entrez MAPK8), read-out: Residual activity (%)
Description: as §1, §2, §3, §4

OSR1 = OSR1 (Homo sapiens, UniProt O95747); settings: OSR1 (Entrez OXSR1), read-out: Residual activity (%)
Description: as §1, §2, §3, §4

RSK2 = RSK2 (Homo sapiens, UniProt P51812); settings: RSK2 (Entrez RPS6KA3), read-out: Residual activity (%)
Description: as §1, §2, §3, §4

EPH-B4 = EPH-B4 (Homo sapiens, UniProt P54760); settings: EPH-B4 (Entrez EPHB4), read-out: Residual activity (%)
Description: as §1, §2, §3, §4

EIF2AK3 = EIF2AK3 (Homo sapiens, UniProt Q9NZJ5); settings: EIF2AK3 (Entrez EIF2AK3), read-out: Residual activity (%)
Description: as §1, §2, §3, §4

SIK3 = SIK3 (Homo sapiens, UniProt Q9Y2K2); settings: SIK3 (Entrez SIK3), read-out: Residual activity (%)
Description: as §1, §2, §3, §4

CHK2 = CHK2 (Homo sapiens, UniProt O96017); settings: CHK2 (Entrez CHEK2), read-out: Residual activity (%)
Description: as §1, §2, §3, §4

TrkA = TrkA (Homo sapiens, UniProt P04629); settings: TrkA (Entrez NTRK1), read-out: Residual activity (%)
Description: as §1, §2, §3, §4

LKB1 = LKB1 (Homo sapiens, UniProt Q15831); settings: LKB1 (Entrez STK11), read-out: Residual activity (%)
Description: as §1, §2, §3, §4

JAK3 = JAK3 (Homo sapiens, UniProt P52333); settings: JAK3 (Entrez JAK3), read-out: Residual activity (%)
Description: as §1, §2, §3, §4

VEG-FR = VEG-FR (Homo sapiens, UniProt P17948); settings: VEG-FR (Entrez FLT1), read-out: Residual activity (%)
Description: as §1, §2, §3, §4

MSK1 = MSK1 (Homo sapiens, UniProt O75582); settings: MSK1 (Entrez RPS6KA5), read-out: Residual activity (%)
Description: as §1, §2, §3, §4

MARK3 = MARK3 (Homo sapiens, UniProt P27448); settings: MARK3 (Entrez MARK3), read-out: Residual activity (%)
Description: as §1, §2, §3, §4

p38d MAPK = p38d MAPK (Homo sapiens, UniProt O15264); settings: p38d MAPK (Entrez MAPK12), read-out: Residual activity (%)
Description: as §1, §2, §3, §4

PAK2 = PAK2 (Homo sapiens, UniProt Q13177); settings: PAK2 (Entrez PAK2), read-out: Residual activity (%)
Description: as §1, §2, §3, §4

Aurora B = Aurora B (Homo sapiens, UniProt Q96GD4); settings: Aurora B (Entrez AURKB), read-out: Residual activity (%)
Description: as §1, §2, §3, §4

STK33 = STK33 (Homo sapiens, UniProt Q9BYT3); settings: STK33 (Entrez STK33), read-out: Residual activity (%)
Description: as §1, §2, §3, §4

HIPK3 = HIPK3 (Homo sapiens, UniProt Q9H422); settings: HIPK3 (Entrez HIPK3), read-out: Residual activity (%)
Description: as §1, §2, §3, §4

CK2 = CK2 (Homo sapiens, UniProt P68400); settings: CK2 (Entrez CSNK2A1), read-out: Residual activity (%)
Description: as §1, §2, §3, §4

Chain of STK33 (Q9BYT3 whole entry): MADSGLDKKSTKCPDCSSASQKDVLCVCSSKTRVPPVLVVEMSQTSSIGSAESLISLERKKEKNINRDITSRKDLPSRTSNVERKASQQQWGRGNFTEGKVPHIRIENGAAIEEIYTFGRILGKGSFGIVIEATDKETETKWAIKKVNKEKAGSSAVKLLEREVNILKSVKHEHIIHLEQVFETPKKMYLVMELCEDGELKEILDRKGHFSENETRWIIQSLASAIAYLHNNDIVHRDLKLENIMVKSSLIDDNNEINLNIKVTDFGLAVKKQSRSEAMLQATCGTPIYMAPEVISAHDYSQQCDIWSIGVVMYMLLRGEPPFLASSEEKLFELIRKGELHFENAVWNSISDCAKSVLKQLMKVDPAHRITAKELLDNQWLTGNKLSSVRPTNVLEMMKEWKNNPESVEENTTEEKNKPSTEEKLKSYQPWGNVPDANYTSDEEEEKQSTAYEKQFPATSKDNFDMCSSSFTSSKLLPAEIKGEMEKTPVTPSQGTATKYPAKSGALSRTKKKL
Chain of SIK2 (Q9H0K1 whole entry): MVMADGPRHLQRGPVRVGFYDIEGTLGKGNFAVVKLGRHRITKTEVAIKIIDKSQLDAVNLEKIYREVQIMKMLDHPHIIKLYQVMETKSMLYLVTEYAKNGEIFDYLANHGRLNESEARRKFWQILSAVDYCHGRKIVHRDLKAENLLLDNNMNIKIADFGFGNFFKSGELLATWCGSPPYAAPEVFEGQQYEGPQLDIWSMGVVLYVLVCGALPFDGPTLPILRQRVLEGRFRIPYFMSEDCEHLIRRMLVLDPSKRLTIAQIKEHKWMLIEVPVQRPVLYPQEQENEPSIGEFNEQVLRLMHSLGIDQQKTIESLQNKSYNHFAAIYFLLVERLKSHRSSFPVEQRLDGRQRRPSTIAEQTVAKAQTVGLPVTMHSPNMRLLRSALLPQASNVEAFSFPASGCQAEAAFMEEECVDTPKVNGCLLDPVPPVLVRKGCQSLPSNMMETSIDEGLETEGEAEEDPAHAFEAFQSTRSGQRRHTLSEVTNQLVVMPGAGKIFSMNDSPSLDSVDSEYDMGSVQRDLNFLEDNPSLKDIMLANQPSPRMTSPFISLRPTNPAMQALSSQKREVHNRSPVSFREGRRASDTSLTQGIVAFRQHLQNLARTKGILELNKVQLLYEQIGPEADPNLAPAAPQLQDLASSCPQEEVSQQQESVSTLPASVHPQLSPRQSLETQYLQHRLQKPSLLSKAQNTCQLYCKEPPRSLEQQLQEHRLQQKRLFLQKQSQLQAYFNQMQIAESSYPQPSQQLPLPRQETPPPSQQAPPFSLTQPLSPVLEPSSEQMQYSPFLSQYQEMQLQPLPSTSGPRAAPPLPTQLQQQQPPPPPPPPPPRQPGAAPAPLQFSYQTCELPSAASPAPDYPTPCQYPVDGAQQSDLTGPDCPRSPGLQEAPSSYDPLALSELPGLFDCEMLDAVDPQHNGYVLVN
Chain of PKBb (P31751 whole entry): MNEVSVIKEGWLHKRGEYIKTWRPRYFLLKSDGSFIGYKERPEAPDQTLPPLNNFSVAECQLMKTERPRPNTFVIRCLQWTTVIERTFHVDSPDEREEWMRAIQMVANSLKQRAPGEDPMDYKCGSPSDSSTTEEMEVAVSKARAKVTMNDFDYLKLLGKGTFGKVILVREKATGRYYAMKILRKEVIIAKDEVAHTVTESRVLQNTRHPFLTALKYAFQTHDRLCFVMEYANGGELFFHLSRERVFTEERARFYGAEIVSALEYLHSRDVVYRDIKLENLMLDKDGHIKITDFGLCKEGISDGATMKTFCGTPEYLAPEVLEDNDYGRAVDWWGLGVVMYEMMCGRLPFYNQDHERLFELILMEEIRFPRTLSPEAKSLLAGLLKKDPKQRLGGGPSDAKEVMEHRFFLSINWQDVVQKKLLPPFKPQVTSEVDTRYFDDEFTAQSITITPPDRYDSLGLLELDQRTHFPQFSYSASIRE
Chain of TrkA (P04629 33-796): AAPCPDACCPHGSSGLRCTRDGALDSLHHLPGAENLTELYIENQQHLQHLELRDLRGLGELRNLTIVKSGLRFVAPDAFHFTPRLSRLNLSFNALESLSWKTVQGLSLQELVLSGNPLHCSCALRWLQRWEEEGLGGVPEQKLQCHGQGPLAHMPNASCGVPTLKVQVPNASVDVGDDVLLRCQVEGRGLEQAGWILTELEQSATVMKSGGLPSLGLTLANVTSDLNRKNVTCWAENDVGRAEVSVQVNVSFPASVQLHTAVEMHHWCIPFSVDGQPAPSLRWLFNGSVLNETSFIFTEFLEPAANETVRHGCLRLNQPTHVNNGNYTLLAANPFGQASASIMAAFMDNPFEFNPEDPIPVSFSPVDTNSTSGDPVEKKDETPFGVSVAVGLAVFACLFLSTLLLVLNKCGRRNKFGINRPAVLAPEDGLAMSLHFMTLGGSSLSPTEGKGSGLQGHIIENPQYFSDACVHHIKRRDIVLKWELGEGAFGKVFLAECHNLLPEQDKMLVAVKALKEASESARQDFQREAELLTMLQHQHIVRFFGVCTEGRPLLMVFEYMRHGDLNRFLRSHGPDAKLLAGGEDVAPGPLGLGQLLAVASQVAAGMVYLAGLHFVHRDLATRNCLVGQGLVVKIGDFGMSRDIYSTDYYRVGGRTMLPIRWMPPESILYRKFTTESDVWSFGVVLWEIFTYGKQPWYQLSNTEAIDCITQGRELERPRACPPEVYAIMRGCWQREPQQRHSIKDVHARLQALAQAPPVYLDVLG
Chain of ERK5 (Q13164 whole entry): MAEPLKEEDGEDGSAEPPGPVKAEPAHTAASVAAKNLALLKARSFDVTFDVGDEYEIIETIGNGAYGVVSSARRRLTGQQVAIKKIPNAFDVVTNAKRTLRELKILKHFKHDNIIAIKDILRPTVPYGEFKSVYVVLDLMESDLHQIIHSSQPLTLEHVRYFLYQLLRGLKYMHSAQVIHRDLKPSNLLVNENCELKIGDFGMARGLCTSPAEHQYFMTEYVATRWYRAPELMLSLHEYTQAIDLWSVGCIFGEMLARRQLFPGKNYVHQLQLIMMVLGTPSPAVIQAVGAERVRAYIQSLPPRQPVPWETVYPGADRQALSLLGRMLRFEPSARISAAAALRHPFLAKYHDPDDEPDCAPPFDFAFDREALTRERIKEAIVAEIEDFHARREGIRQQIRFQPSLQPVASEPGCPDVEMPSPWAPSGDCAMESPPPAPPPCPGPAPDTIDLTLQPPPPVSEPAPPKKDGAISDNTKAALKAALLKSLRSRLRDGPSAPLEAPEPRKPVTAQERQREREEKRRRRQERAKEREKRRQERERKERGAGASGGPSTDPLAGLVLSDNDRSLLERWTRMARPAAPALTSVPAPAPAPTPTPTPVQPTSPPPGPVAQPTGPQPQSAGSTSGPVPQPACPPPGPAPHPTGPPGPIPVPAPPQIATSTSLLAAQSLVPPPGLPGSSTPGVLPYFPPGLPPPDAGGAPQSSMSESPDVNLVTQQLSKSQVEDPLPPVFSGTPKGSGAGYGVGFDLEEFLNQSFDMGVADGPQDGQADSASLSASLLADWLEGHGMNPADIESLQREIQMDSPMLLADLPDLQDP
Chain of OSR1 (O95747 whole entry): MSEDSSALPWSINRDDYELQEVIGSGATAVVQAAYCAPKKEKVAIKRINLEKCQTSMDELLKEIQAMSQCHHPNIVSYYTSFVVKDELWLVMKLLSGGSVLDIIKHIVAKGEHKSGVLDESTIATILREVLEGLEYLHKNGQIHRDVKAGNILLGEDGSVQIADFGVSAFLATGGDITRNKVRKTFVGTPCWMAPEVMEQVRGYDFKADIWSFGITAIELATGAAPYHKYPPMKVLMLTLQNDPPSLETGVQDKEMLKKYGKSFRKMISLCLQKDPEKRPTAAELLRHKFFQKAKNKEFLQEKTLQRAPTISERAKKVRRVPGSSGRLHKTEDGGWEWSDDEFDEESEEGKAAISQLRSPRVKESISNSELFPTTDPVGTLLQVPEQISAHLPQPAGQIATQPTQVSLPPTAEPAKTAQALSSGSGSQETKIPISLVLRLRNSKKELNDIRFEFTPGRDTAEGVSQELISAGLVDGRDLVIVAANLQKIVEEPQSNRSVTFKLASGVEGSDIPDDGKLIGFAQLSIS
Chain of RSK2 (P51812 whole entry): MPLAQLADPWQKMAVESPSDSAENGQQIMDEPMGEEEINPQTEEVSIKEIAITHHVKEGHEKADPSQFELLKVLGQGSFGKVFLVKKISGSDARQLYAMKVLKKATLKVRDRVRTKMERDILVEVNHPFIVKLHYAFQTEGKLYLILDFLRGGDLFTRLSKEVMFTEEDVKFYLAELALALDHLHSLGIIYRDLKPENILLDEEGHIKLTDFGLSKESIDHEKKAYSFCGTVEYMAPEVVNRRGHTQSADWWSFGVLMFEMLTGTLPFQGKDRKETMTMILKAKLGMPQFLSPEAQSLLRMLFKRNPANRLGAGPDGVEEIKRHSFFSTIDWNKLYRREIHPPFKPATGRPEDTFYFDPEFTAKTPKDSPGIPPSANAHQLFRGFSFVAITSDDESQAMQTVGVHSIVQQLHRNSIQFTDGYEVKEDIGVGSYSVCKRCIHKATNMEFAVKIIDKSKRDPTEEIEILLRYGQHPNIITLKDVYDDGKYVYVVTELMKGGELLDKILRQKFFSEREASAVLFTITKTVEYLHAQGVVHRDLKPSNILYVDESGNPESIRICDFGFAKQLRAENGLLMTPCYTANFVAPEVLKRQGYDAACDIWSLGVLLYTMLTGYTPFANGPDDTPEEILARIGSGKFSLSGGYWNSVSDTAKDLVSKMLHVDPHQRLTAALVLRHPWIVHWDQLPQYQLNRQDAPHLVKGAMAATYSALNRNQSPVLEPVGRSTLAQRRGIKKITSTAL

COc1ccc(Nc2ncnc3c2ccn3-c2ccc(C)c(C)c2)cc1Cl [compound 36]
remaining activity at 1 µM (PKA): 80%
remaining activity at 1 µM (MARK1): 113%
remaining activity at 1 µM (YES1): 98%
remaining activity at 1 µM (PKBb): 103%
remaining activity at 1 µM (IKKb): 75%
remaining activity at 1 µM (ERK5): 95%
remaining activity at 1 µM (MPSK1): 96%
remaining activity at 1 µM (TTBK1): 68%
remaining activity at 1 µM (SIK2): 109%
remaining activity at 1 µM (IRR): 96%
remaining activity at 1 µM (JNK1): 85%
remaining activity at 1 µM (OSR1): 87%
remaining activity at 1 µM (RSK2): 77%
remaining activity at 1 µM (EPH-B4): 99%
remaining activity at 1 µM (EIF2AK3): 76%
remaining activity at 1 µM (SIK3): 123%
remaining activity at 1 µM (CHK2): 96%
remaining activity at 1 µM (TrkA): 85%
remaining activity at 1 µM (LKB1): 101%
remaining activity at 1 µM (JAK3): 63%
remaining activity at 1 µM (VEG-FR): 99%
remaining activity at 1 µM (MSK1): 103%
remaining activity at 1 µM (MARK3): 104%
remaining activity at 1 µM (p38d MAPK): 128%
remaining activity at 1 µM (PAK2): 99%
remaining activity at 1 µM (Aurora B): 110%
remaining activity at 1 µM (STK33): 93%
remaining activity at 1 µM (HIPK3): 76%
remaining activity at 1 µM (CK2): 97%
